Target: T1, human renin (Homo sapiens, UniProt P00797)
T1 construct: purchased National Institute for Biological Standards, London
T1 sequence (P00797 67-406): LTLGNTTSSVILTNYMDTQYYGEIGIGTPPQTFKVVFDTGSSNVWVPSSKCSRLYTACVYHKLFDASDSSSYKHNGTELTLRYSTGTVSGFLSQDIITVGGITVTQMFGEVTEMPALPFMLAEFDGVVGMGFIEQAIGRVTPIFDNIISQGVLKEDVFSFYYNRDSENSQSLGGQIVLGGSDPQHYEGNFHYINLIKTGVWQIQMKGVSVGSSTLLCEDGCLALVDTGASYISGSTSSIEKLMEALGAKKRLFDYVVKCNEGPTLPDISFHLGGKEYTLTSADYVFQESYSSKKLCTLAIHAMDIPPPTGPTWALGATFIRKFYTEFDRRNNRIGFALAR
Experiment: Human renin inhibition in vitro
Format: biochemical
Conditions: human renin with human plasma as substrate, pH 7.4, 37° C., two hours; angiotensin I by radioimmunoassay; read-out: inhibit human renin in vitro, IC50
Method: Compounds of Formula I were evaluated as inhibitors of human renin in an in vitro assay, as follows: This human renin inhibition test has been previously described in detail [Papaioannou et al., Clinical and Experimental Hypertension, A7(9), 1243-1257 (1985)]. Human renin was obtained from the National Institute for Biological Standards, London. An incubation mixture was prepared containing the following components: in a total volume of 0.25 mL: 100 mM Tris-acetate buffer at pH 7.4, 25×10^−6 Goldblatt units of renin, 0.05 mL of plasma from human volunteers taking oral contraceptives, 6.0 mM Na-EDTA, 2.4 mM phenylmethyl sulfonyl fluoride, 1.5 mM 8-hydroxyquinoline, 0.4 mg/mL bovine serum albumin (BSA), and 0.024 mg/mL neomycin sulfate. This mixture was incubated for two hours at 37° C. in the presence or absence of renin inhibitors. The produced angiotensin I was determined by radioimmunoassay (New England Nuclear kit). Test compounds to be assayed were dissolved in DMSO and diluted with 100 mM Tris-acetate buffer at pH 7.4 containing 0.5% BSA to the appropriate concentration. The final concentration of organic solvent in the reaction mixture was less than 1%. Control incubations at 37° C. were used to correct for effects of organic solvent on renin activity. The in vitro enzymatic conversion of angiotensinogen to angiotensin I was inhibited by test compounds of the invention.

CC(C)C[C@H](O)[C@H](O)[C@H](CC1CCCCC1)NC(=O)[C@H](C)CNC(=O)C(Cc1ccccc1)CS(=O)(=O)CCN(C)C (stereo partly shown) [Example 1]
IC50: 44 nM
